Reference: patent US20220348595A1, “COMPOUNDS AND METHODS FOR THE TARGETED DEGRADATION OF ESTROGEN RECEPTORS” (Endotarget Inc., priority 2021, published 2022)
Where two headings read alike, the source gives them in different places.

Columns and labels:
Type in all cases: cell-based
ERα = target: T1, ERα (Homo sapiens, UniProt P03372); test: ER degradation in MCF-7 cells (Western blot); details: for DC50: ER degradation, 24 hours
T1 construct: endogenous in cells; host or cells: MCF-7
T1 sequence (P03372 1-595): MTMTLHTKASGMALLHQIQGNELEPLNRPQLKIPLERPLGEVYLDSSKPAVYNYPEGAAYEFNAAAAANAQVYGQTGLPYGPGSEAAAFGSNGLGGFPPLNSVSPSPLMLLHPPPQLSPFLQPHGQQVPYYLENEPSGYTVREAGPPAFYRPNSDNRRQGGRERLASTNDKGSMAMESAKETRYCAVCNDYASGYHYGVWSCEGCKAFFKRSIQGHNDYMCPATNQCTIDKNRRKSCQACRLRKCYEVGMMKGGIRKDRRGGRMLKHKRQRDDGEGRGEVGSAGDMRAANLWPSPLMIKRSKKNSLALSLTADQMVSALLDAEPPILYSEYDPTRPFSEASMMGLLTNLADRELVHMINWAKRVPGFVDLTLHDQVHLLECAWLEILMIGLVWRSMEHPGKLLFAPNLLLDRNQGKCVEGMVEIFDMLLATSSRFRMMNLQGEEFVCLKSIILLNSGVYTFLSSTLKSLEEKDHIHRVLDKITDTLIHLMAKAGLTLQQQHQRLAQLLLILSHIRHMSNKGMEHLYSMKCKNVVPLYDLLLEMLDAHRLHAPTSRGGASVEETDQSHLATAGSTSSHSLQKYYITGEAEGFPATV
Summary of the method: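 MCF-7 cells treated with a range of compound concentrations for 24 hours, then lysed; 50 μg protein probed for ERα by Western blot with infrared imaging. DC50 is concentration giving 50% ER reduction; Dmax is the highest percentage reduction over the range tested.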

ER = target: T2, ER (Homo sapiens, UniProt P03372); test: ER antagonism (T47D ERE luciferase), T47d-kb-Luc cells; details: read-out: IC50 (ER antagonistm)
T2 construct: endogenous in cells; host or cells: T47d-kb-Luc (T47D stably transfected with a luciferase reporter gene only)
T2 sequence (P03372 1-595): T1 sequence (P03372 1-595)
Summary of the method: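 Stably transfected T47d-kb-Luc human breast cancer cells were used, and antagonism was measured as inhibition of estradiol-driven activity. Data were normalised to the estradiol control. Five concentrations were tested in quadruplicate across at least three experiments.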

[1] = test system: MCF-7 breast cancer cells; test: MCF-7 proliferation / cell viability assay; details: MCF-7 proliferation with 0.1 nM 17-beta estradiol, read-out: IC50 (anti-proliferation)
Summary of the method: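 MCF-7 cells in 5% FBS DMEM were exposed for 5 days to compound at 6 doses from 10^−10 M to 10^−5 M, with DMSO as vehicle. Viable cells were counted by Coulter counter. Survival ratio = treated/vehicle viable cell number, vehicle set to 100%.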

[2] = MCF7, Maximal ER degradation, read-out: Dmax

SMILES	DC50 (ERα)	Dmax (ERα; [2])	IC50 (ER)	IC50 ([1]; Homo sapiens, MCF7)	Dmax (ERα; Maximal ER degradation)	IC50 [1]
CC/C(=C(\c1ccc(O)cc1)c1ccc(N2CCN(C(=O)N3CCN(c4ccc5c(c4)CN(C4CCC(=O)NC4=O)C5=O)CC3)CC2)cc1)c1ccccc1 (centres unmarked) [Compound 97, (E)-3-(5-(4-(4-(4-(1-(4-hydroxyphenyl)-2-phenylbut-1-en-1-yl)phenyl)piperazine-1-carbonyl)piperazin-1-yl)-1-oxoisoindolin-2-yl)piperidine-2,6-dione]	10 to 50 nM	> 90%	< 10 nM	10 to 50 nM	–	–
CC/C(=C(\c1ccc(O)cc1)c1ccc(N2CCN(C(=O)N3CCN(c4ccc5c(c4)CN([C@H]4CCC(=O)NC4=O)C5=O)CC3)CC2)cc1)c1ccccc1 [Compound 98]	10 to 50 nM	–	< 10 nM	–	A (A -> 90%)	10 to 50 nM
CC/C(=C(\c1ccc(O)cc1)c1ccc(N2CCN(C(=O)N3CCN(c4ccc5c(c4)CN([C@@H]4CCC(=O)NC4=O)C5=O)CC3)CC2)cc1)c1ccccc1 [Compound 99, (R,E)-3-(5-(4-(4-(4-(1-(4-hydroxyphenyl)-2-phenylbut-1-en-1-yl)phenyl)piperazine-1-carbonyl)piperazin-1-yl)-1-oxoisoindolin-2-yl)piperidine-2,6-dione]	10 to 50 nM	> 90%	< 10 nM	10 to 50 nM	–	–
CC/C(=C(/c1ccc(O)cc1)c1ccc(N2CCN(C(=O)N3CCN(c4ccc5c(c4)CN(C4CCC(=O)NC4=O)C5=O)CC3)CC2)cc1)c1ccccc1 (centres unmarked) [Compound 100]	< 10 nM	> 90%	< 10 nM	10 to 50 nM	–	–
CC/C(=C(/c1ccc(O)cc1)c1ccc(N2CCN(C(=O)N3CCN(c4ccc5c(c4)CN([C@H]4CCC(=O)NC4=O)C5=O)CC3)CC2)cc1)c1ccccc1 [Compound 101, (S,Z)-3-(5-(4-(4-(4-(1-(4-hydroxyphenyl)-2-phenylbut-1-en-1-yl)phenyl)piperazine-1-carbonyl)piperazin-1-yl)-1-oxoisoindolin-2-yl)piperidine-2,6-dione]	< 10 nM	> 90%	< 10 nM	10 to 50 nM	–	–
CC/C(=C(/c1ccc(O)cc1)c1ccc(N2CCN(C(=O)N3CCN(c4ccc5c(c4)CN([C@@H]4CCC(=O)NC4=O)C5=O)CC3)CC2)cc1)c1ccccc1 [Compound 102, (R,Z)-3-(5-(4-(4-(4-(1-(4-hydroxyphenyl)-2-phenylbut-1-en-1-yl)phenyl)piperazine-1-carbonyl)piperazin-1-yl)-1-oxoisoindolin-2-yl)piperidine-2,6-dione]	< 10 nM	> 90%	< 10 nM	10 to 50 nM	–	–
CC/C(=C(\c1ccc(B(O)O)cc1)c1ccc(N2CCN(C(=O)N3CCN(c4ccc5c(c4)CN(C4CCC(=O)NC4=O)C5=O)CC3)CC2)cc1)c1ccccc1 (centres unmarked) [Compound 103, (Z)-(4-(1-(4-(4-(4-(2-(2,6-dioxopiperidin-3-yl)-1-oxoisoindolin-5-yl)piperazine-1-carbonyl)piperazin-1-yl)phenyl)-2-phenylbut-1-en-1-yl)phenyl)boronic acid]	< 10 nM	> 90%	< 10 nM	< 10 nM	–	–
CC/C(=C(\c1ccc(B(O)O)cc1)c1ccc(N2CCN(C(=O)N3CCN(c4ccc5c(c4)CN([C@H]4CCC(=O)NC4=O)C5=O)CC3)CC2)cc1)c1ccccc1 [Compound 104, (S,Z)-(4-(1-(4-(4-(4-(2-(2,6-dioxopiperidin-3-yl)-1-oxoisoindolin-5-yl)piperazine-1-carbonyl)piperazin-1-yl)phenyl)-2-phenylbut-1-en-1-yl)phenyl)boronic acid]	< 10 nM	> 90%	< 10 nM	< 10 nM	–	–
CC/C(=C(\c1ccc(B(O)O)cc1)c1ccc(N2CCN(C(=O)N3CCN(c4ccc5c(c4)CN([C@@H]4CCC(=O)NC4=O)C5=O)CC3)CC2)cc1)c1ccccc1 [Compound 105]	< 10 nM	> 90%	< 10 nM	< 10 nM	–	–
CC/C(=C(/c1ccc(B(O)O)cc1)c1ccc(N2CCN(C(=O)N3CCN(c4ccc5c(c4)CN(C4CCC(=O)NC4=O)C5=O)CC3)CC2)cc1)c1ccccc1 (centres unmarked) [Compound 106]	< 10 nM	> 90%	< 10 nM	< 10 nM	–	–
CC/C(=C(/c1ccc(B(O)O)cc1)c1ccc(N2CCN(C(=O)N3CCN(c4ccc5c(c4)CN([C@H]4CCC(=O)NC4=O)C5=O)CC3)CC2)cc1)c1ccccc1 [Compound 107, (S,E)-(4-(1-(4-(4-(4-(2-(2,6-dioxopiperidin-3-yl)-1-oxoisoindolin-5-yl)piperazine-1-carbonyl)piperazin-1-yl)phenyl)-2-phenylbut-1-en-1-yl)phenyl)boronic acid]	< 10 nM	> 90%	< 10 nM	< 10 nM	–	–
CC/C(=C(/c1ccc(B(O)O)cc1)c1ccc(N2CCN(C(=O)N3CCN(c4ccc5c(c4)CN([C@@H]4CCC(=O)NC4=O)C5=O)CC3)CC2)cc1)c1ccccc1 [Compound 108, (R,E)-(4-(1-(4-(4-(4-(2-(2,6-dioxopiperidin-3-yl)-1-oxoisoindolin-5-yl)piperazine-1-carbonyl)piperazin-1-yl)phenyl)-2-phenylbut-1-en-1-yl)phenyl)boronic acid]	< 10 nM	> 90%	< 10 nM	< 10 nM	–	–
CC/C(=C(\c1ccc(O)cc1)c1ccc(N2CCN(C(=O)N3CCC(N4CCN(c5ccc6c(c5)CN(C5CCC(=O)NC5=O)C6=O)CC4)CC3)CC2)cc1)c1ccccc1 (centres unmarked) [Compound 109, (E)-3-(5-(4-(1-(4-(4-(1-(4-hydroxyphenyl)-2-phenylbut-1-en-1-yl)phenyl)piperazine-1-carbonyl)piperidin-4-yl)piperazin-1-yl)-1-oxoisoindolin-2-yl)piperidine-2,6-dione]	10 to 50 nM	> 90%	< 10 nM	10 to 50 nM	–	–
CC/C(=C(\c1ccc(B(O)O)cc1)c1ccc(N2CCN(C(=O)N3CCC(N4CCN(c5ccc6c(c5)CN(C5CCC(=O)NC5=O)C6=O)CC4)CC3)CC2)cc1)c1ccccc1 (centres unmarked) [Compound 110, (Z)-(4-(1-(4-(4-(4-(4-(2-(2,6-dioxopiperidin-3-yl)-1-oxoisoindolin-5-yl)piperazin-1-yl)piperidine-1-carbonyl)piperazin-1-yl)phenyl)-2-phenylbut-1-en-1-yl)phenyl)boronic acid]	10 to 50 nM	> 90%	< 10 nM	10 to 50 nM	–	–
CC/C(=C(/c1ccc(O)cc1)c1ccc(N2CCN(C(=O)N3CCC(N4CCN(c5ccc6c(c5)CN(C5CCC(=O)NC5=O)C6=O)CC4)CC3)CC2)cc1)c1ccccc1 (centres unmarked) [Compound 111, (Z)-3-(5-(4-(1-(4-(4-(1-(4-hydroxyphenyl)-2-phenylbut-1-en-1-yl)phenyl)piperazine-1-carbonyl)piperidin-4-yl)piperazin-1-yl)-1-oxoisoindolin-2-yl)piperidine-2,6-dione]	10 to 50 nM	> 90%	< 10 nM	10 to 50 nM	–	–
CC/C(=C(/c1ccc(B(O)O)cc1)c1ccc(N2CCN(C(=O)N3CCC(N4CCN(c5ccc6c(c5)CN(C5CCC(=O)NC5=O)C6=O)CC4)CC3)CC2)cc1)c1ccccc1 (centres unmarked) [Compound 112, (E)-(4-(1-(4-(4-(4-(4-(2-(2,6-dioxopiperidin-3-yl)-1-oxoisoindolin-5-yl)piperazin-1-yl)piperidine-1-carbonyl)piperazin-1-yl)phenyl)-2-phenylbut-1-en-1-yl)phenyl)boronic acid]	10 to 50 nM	> 90%	< 10 nM	10 to 50 nM	–	–
CC/C(=C(\c1ccc(O)cc1)c1ccc(N2CCN(C(=O)N3CCC(CN4CCN(c5ccc6c(c5)CN(C5CCC(=O)NC5=O)C6=O)CC4)CC3)CC2)cc1)c1ccccc1 (centres unmarked) [Compound 113, (E)-3-(5-(4-((1-(4-(4-(1-(4-hydroxyphenyl)-2-phenylbut-1-en-1-yl)phenyl)piperazine-1-carbonyl)piperidin-4-yl)methyl)piperazin-1-yl)-1-oxoisoindolin-2-yl)piperidine-2,6-dione]	< 10 nM	> 90%	< 10 nM	< 10 nM	–	–
